From patent US20170015555A1, “LONG-TERM PRESERVATION AND NOVEL APPLICATION OF CHLOROUS ACID AQUEOUS SOLUTION FORMULATION” (priority 2013, published 2017)

Tests used:
Type in all cases: cell-based
[1] = tested on: Microbes of the genus Salmonella: Salmonella Enteritidis IF03313; test: Sterilizing effect on floor surface after wiping off imitation vomit, rubber mattress; conditions: 1000 ppm available chlorine
Source text: (§1) 1) Chlorous acid aqueous solution formulation (see Example 1: Table 11) Treatment sheet (material: 100% cotton): (about 27×40 cm) *Impregnated at a ratio of weight of treatment sheet (g): amount of liquid (ml)=1:3 2) Imitation vomit Miso solution: adjusted to pH of 2 with hydrochloric acid 3) Test Microbes that were Used E. coli: Escherichia coli IF03927 Staphylococcus aureus: Staphylococcus aureus IF0 12732 Thermoduric Microbes (Bacillus cereus): Bacillus cereus NBRC15305 Microbes of the genus Salmonella: Salmonella Enteritidis IF03313 Enterohemorrhagic Escherichia coli O157: Escherichia coli O157 Enterohemorrhagic Escherichia coli O111: Escherichia coli O111 Enterohemorrhagic Escherichia coli O26: Escherichia coli O26
(§2) (1) Imitation vomit was spread in an area about the size of an A4 sheet. (2) 5 agent solution-containing treatment sheets were laid thereon. (3) The imitation vomit was wiped off. (4) A cotton swab was soaked with sterile saline. A portion where imitation vomit was spread was scrubbed with the cotton swab to collect microbes remaining on the floor. After suspending in saline, the solution was spread on a petri dish and cultured. The number of each of the microbes was measured. (5) Test operations 3 and 4 were repeated a total of 7 times (repeated until the imitation vomit could be removed completely).

[2] = tested on: Staphylococcus aureus IF0 12732; test: as above; conditions: 1000 ppm available chlorine
Source text: as §1, §2

[3] = tested on: Enterohemorrhagic Escherichia coli O157; test: as above; conditions: 1000 ppm available chlorine
Source text: as §1, §2

[4] = tested on: E. coli: Escherichia coli IF03927; test: as above; conditions: 1000 ppm available chlorine
Source text: as §1, §2

[5] = tested on: Enterohemorrhagic Escherichia coli O26; test: as above; conditions: 1000 ppm available chlorine
Source text: as §1, §2

[6] = tested on: Bacillus cereus NBRC15305; test: as above; conditions: 1000 ppm available chlorine
Source text: as §1, §2

[7] = tested on: Enterohemorrhagic Escherichia coli O111; test: as above
Source text: as §1, §2

[8] = tested on: Salmonella Enteritidis IF03313; test: Permeability of pathogenic microbes when treatment sheets were laid on vomit; conditions: 1000 ppm available chlorine
Source text: (§3) 1) Chlorous acid aqueous solution formulation (see Example 1: Table 11) Treatment sheet (material: 100% cotton): (about 27×40 cm) *Impregnated at a ratio of weight of treatment sheet (g): amount of liquid (ml)=1:3 2) Imitation vomit (hereinafter, referred to as vomit) Miso solution: adjusted to pH 2 with hydrochloric acid 3) Test Microbes that were used E. coli: Escherichia coli IF03927 Staphylococcus aureus: Staphylococcus aureus IF0 12732 Thermoduric Microbes (Bacillus cereus): Bacillus cereus NBRC15305 Microbes of the genus Salmonella: Salmonella Enteritidis IF03313 Enterohemorrhagic Escherichia coli 0157: Escherichia coli 0157 Enterohemorrhagic Escherichia coli 0111: Escherichia coli 0111 Enterohemorrhagic Escherichia coli 026: Escherichia coli O26
(§4) Permeability of pathogenic microbes into a treatment sheet when treating vomit was examined to compare effects of preventing secondary contamination. (1) Imitation vomit is spread in an area about the size of an A4 sheet. (2) 30 agent solution-containing treatment sheets were laid thereon and left standing for 10 minutes. (3) Treatment sheets were removed one at a time from the top. After diluting with saline, the sample was spread in a petri dish and cultured.

[9] = tested on: Enterohemorrhagic Escherichia coli O26; test: as above; conditions: 1000 ppm available chlorine
Source text: as §3, §4

[10] = 1000 ppm available chlorine, stored at 25° C. Day 0
[11] = 1000 ppm, stored at 25° C. Day 7

OCl [Sodium Hypochlorite, sodium hypochlorite]
1.8 × 10^2: microbes remaining, wiped 3 Times ([6]; stored at 25° C. Day 7)
1.1 × 10^2: microbes remaining, wiped 3 Times ([3]; stored at 25° C. Day 7)
1.2 × 10^3: microbes remaining, wiped 2 Times ([3]; stored at 25° C. Day 7)
7.1 × 10^2: Microbe count, 10 sheets laid on imitation vomit ([8]; Day 7 at 25° C.)
2.1 × 10^3: Microbe count on floor, wiped 3 Times ([4]; Day 7 at 25° C.) | microbes remaining, wiped 1 Time ([6]; stored at 25° C. Day 7)
8.7 × 10^6: Microbe count on floor, wiped 1 Time ([2]; Day 7 at 25° C.)
3.3 × 10^3: Microbe count on floor, wiped 3 Times ([2]; Day 7 at 25° C.)
1.1 × 10^4: Microbe count, 8 sheets laid on imitation vomit ([8]; Day 7 at 25° C.)
3.0 × 10^2: microbes remaining, wiped 3 Times ([5]; stored at 25° C. Day 7)
1.0 × 10^3: microbes remaining, wiped 2 Times ([5]; stored at 25° C. Day 7) | microbes remaining, wiped 2 Times [7, 11]
1.5 × 10^3: microbes remaining, wiped 1 Time [7, 11]
<10: microbes remaining, wiped 1 Time ([1]; stored at 25° C. Day 0) | microbes remaining, wiped 2 Times ([1]; stored at 25° C. Day 0) | microbes remaining, wiped 3 Times ([1]; stored at 25° C. Day 0) | Microbe count on floor, wiped 1 Time ([2]; Day 0 at 25° C.) | Microbe count on floor, wiped 2 Times ([2]; Day 0 at 25° C.) | Microbe count on floor, wiped 3 Times ([2]; Day 0 at 25° C.) | microbes remaining, wiped 1 Time ([3]; stored at 25° C. Day 0) | microbes remaining, wiped 2 Times ([3]; stored at 25° C. Day 0) | microbes remaining, wiped 3 Times ([3]; stored at 25° C. Day 0) | Microbe count on floor, wiped 1 Time ([4]; Day 0 at 25° C.) | Microbe count on floor, wiped 2 Times ([4]; Day 0 at 25° C.) | Microbe count on floor, wiped 3 Times ([4]; Day 0 at 25° C.) | microbes remaining, wiped 1 Time ([5]; stored at 25° C. Day 0) | microbes remaining, wiped 2 Times ([5]; stored at 25° C. Day 0) | microbes remaining, wiped 3 Times ([5]; stored at 25° C. Day 0) | microbes remaining, wiped 1 Time ([6]; stored at 25° C. Day 0) | microbes remaining, wiped 2 Times ([6]; stored at 25° C. Day 0) | microbes remaining, wiped 3 Times ([6]; stored at 25° C. Day 0) | microbes remaining, wiped 1 Time [7, 10] | microbes remaining, wiped 2 Times [7, 10] | microbes remaining, wiped 3 Times [7, 10] | microbes remaining, wiped 7 Times [7, 11] | Microbe count, 2 sheets laid on imitation vomit ([8]; Day 0 at 25° C.) | Microbe count, 3 sheets laid on imitation vomit ([8]; Day 0 at 25° C.) | Microbe count, 4 sheets laid on imitation vomit ([8]; Day 0 at 25° C.) | Microbe count, 5 sheets laid on imitation vomit ([8]; Day 0 at 25° C.) | Microbe count, 6 sheets laid on imitation vomit ([8]; Day 0 at 25° C.) | Microbe count, 8 sheets laid on imitation vomit ([8]; Day 0 at 25° C.) | Microbe count, 10 sheets laid on imitation vomit ([8]; Day 0 at 25° C.) | Microbe count, 20 sheets laid on imitation vomit ([8]; Day 0 at 25° C.) | Microbe count, 30 sheets laid on imitation vomit ([8]; Day 0 at 25° C.) | Microbe count, 20 sheets laid on imitation vomit ([8]; Day 7 at 25° C.) | Microbe count, 30 sheets laid on imitation vomit ([8]; Day 7 at 25° C.) | Microbe count, 1 sheet laid on imitation vomit ([9]; Day 0 at 25° C.) | Microbe count, 2 sheets laid on imitation vomit ([9]; Day 0 at 25° C.) | Microbe count, 3 sheets laid on imitation vomit ([9]; Day 0 at 25° C.) | Microbe count, 4 sheets laid on imitation vomit ([9]; Day 0 at 25° C.) | Microbe count, 5 sheets laid on imitation vomit ([9]; Day 0 at 25° C.) | Microbe count, 6 sheets laid on imitation vomit ([9]; Day 0 at 25° C.) | Microbe count, 8 sheets laid on imitation vomit ([9]; Day 0 at 25° C.) | Microbe count, 10 sheets laid on imitation vomit ([9]; Day 0 at 25° C.) | Microbe count, 20 sheets laid on imitation vomit ([9]; Day 0 at 25° C.) | Microbe count, 30 sheets laid on imitation vomit ([9]; Day 0 at 25° C.)
4.2 × 10^3: microbes remaining, wiped 1 Time ([3]; stored at 25° C. Day 7)
3.2 × 10^3: microbes remaining, wiped 1 Time ([5]; stored at 25° C. Day 7)
2.6 × 10^2: microbes remaining, wiped 3 Times [7, 11]
6.5 × 10^2: microbes remaining, wiped 2 Times ([6]; stored at 25° C. Day 7)
2.0 × 10^2: Microbe count, 1 sheet laid on imitation vomit ([8]; Day 0 at 25° C.)
>10^6: Microbe count, 1 sheet laid on imitation vomit ([8]; Day 7 at 25° C.) | Microbe count, 2 sheets laid on imitation vomit ([8]; Day 7 at 25° C.) | Microbe count, 3 sheets laid on imitation vomit ([8]; Day 7 at 25° C.) | Microbe count, 4 sheets laid on imitation vomit ([8]; Day 7 at 25° C.) | Microbe count, 5 sheets laid on imitation vomit ([8]; Day 7 at 25° C.) | Microbe count, 6 sheets laid on imitation vomit ([8]; Day 7 at 25° C.) | Microbe count, 1 sheet laid on imitation vomit ([9]; Day 7 at 25° C.) | Microbe count, 2 sheets laid on imitation vomit ([9]; Day 7 at 25° C.) | Microbe count, 3 sheets laid on imitation vomit ([9]; Day 7 at 25° C.) | Microbe count, 4 sheets laid on imitation vomit ([9]; Day 7 at 25° C.) | Microbe count, 5 sheets laid on imitation vomit ([9]; Day 7 at 25° C.) | Microbe count, 6 sheets laid on imitation vomit ([9]; Day 7 at 25° C.) | Microbe count, 8 sheets laid on imitation vomit ([9]; Day 7 at 25° C.) | Microbe count, 10 sheets laid on imitation vomit ([9]; Day 7 at 25° C.) | Microbe count, 20 sheets laid on imitation vomit ([9]; Day 7 at 25° C.) | Microbe count, 30 sheets laid on imitation vomit ([9]; Day 7 at 25° C.)
2.3 × 10^4: Microbe count on floor, wiped 1 Time ([4]; Day 7 at 25° C.)
3.6 × 10^2: microbes remaining, wiped 2 Times ([1]; stored at 25° C. Day 7)
7.3 × 10^3: Microbe count on floor, wiped 2 Times ([2]; Day 7 at 25° C.)
1.1 × 10^3: microbes remaining, wiped 1 Time ([1]; stored at 25° C. Day 7)
7.8 × 10^3: Microbe count on floor, wiped 2 Times ([4]; Day 7 at 25° C.)
